Measurements as given in BindingDB's records for doi:10.1021/acs.jmedchem.0c00012 (University of Perugia, 2020).

Target: T1, Nuclear receptor subfamily 1 group I member 2 (Homo sapiens, UniProt O75469)
T1 sequence (O75469 whole entry): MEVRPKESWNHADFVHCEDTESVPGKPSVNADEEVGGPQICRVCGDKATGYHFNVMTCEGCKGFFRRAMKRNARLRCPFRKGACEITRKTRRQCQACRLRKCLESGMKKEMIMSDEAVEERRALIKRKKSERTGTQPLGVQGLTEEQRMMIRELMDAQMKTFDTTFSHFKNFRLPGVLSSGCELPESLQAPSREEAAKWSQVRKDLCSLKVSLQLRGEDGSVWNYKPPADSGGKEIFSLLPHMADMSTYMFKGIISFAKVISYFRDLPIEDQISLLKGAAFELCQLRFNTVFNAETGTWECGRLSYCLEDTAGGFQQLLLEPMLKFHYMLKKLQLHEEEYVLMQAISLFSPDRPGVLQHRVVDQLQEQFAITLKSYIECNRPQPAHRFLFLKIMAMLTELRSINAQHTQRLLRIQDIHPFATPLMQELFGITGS
Assay: Agonist activity at His-tagged PXR-LBD/SRC-1p (unknown origin) expressed in Escherichia coli BL21(DE3) by coactivator recruitment based Alpha-screen assay

EC50: 3.3 µM
SMILES: Cc1c(C)c2c(c(C)c1O)CC[C@@](C)(CCC[C@H](C)CCC[C@H](C)CCCC(C)C(=O)O)O2 (stereo partly specified)
